Laboratory results: patent US20230113037A1 (Bayer Aktiengesellschaft, priority 2019, published 2023)
Where two headings read alike, the source gives them in different places.

Legend:
[1] = molecular target: T1, AHR (Homo sapiens, UniProt P35869); assay: In vitro assay 1: antagonism in human cell line (AHR transactivation, firefly luciferase reporter, kynurenic acid prestimulated); format: cell-based; conditions: AHR Antagonism Human IC50 [M]
T1 construct: U87 MG glioblastoma cells (ATCC #HTB-14) endogenously expressing AHR; endogenous in cells; host or cells: U87 MG glioblastoma cells (ATCC #HTB-14)
T1 sequence (P35869 11-848): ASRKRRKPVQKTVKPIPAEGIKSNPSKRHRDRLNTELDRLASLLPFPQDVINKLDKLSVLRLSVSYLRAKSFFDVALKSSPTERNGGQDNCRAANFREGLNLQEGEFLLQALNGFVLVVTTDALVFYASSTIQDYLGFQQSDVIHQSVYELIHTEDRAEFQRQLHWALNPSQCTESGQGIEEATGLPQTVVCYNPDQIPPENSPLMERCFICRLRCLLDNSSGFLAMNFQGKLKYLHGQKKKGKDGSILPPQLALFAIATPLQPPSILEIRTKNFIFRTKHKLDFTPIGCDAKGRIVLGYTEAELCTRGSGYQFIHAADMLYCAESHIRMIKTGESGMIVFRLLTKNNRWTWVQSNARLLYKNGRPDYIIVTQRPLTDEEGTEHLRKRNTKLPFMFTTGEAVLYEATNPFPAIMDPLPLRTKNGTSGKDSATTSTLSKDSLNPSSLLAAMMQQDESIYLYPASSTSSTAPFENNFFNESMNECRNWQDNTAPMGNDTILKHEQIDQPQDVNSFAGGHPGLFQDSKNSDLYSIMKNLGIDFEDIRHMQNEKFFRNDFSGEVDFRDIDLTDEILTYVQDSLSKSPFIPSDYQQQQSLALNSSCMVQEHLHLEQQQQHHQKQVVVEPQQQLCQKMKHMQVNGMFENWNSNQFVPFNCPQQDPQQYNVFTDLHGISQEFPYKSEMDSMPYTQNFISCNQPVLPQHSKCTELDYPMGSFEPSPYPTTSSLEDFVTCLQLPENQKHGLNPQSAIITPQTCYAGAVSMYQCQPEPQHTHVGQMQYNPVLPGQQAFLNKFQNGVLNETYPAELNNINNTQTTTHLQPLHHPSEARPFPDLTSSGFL
Summary of the method: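 Antagonism measured as loss of kynurenic acid-driven firefly luciferase from DRE reporter in stably transfected U87 MG cells; constitutive Renilla signal monitors cytotoxicity. Positive/negative control normalization, staurosporine 5 μM with 150 μM kynurenic acid as inhibition control; replicates given as mean or median.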

[2] = molecular target: T2, AHR (Mus musculus, UniProt P30561); assay: In vitro assay 3: antagonism in mouse cell line (AHR transactivation, firefly luciferase reporter, kynurenic acid prestimulated); format: cell-based
T2 sequence (P30561 1-848 P471L/N533S/M589L): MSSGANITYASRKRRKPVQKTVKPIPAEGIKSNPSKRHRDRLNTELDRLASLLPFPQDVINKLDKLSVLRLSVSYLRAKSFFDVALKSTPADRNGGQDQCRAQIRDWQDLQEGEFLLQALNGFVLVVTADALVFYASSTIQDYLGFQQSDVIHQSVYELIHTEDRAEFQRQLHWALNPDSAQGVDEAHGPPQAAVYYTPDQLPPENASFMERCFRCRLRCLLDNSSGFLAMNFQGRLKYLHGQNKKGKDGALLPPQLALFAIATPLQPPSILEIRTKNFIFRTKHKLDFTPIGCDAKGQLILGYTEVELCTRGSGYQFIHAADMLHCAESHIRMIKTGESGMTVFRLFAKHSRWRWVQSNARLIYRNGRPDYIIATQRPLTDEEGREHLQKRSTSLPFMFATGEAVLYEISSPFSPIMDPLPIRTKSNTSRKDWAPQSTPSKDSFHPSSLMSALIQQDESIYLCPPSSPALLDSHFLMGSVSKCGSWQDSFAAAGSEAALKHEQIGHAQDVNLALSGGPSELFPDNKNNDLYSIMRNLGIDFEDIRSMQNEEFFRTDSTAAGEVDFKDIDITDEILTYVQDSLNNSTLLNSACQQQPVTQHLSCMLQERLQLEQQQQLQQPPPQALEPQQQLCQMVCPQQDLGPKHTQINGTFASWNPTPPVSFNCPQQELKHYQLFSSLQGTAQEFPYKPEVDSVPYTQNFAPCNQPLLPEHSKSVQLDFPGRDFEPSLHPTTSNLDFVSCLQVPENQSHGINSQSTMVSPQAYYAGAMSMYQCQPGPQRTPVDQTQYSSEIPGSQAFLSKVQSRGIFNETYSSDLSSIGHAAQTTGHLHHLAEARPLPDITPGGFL
Summary of the method: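 Luminescence from an AHR-dependent DRE-luciferase reporter, stably integrated in mouse cells, quantifies blockade of kynurenic acid-driven activation. Unstimulated cells mark maximal inhibition; normalization uses both control types, and multiply tested compounds carry mean or median values.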

[3] = Hepa 1c1c7 cells, 200 μM kynurenic acid, 20 hours, firefly luciferase reporter, read-out: AHR Antagonism Mouse IC50
[4] = mouse Hepa 1c1c7 cells, 200 μM kynurenic acid, 20 hours, read-out: AHR Antagonism Mouse IC50

| IC50 ([1]; firefly luciferase reporter) | IC50 [2, 3] | IC50 [1] | IC50 [2, 4] | SMILES | IC50 ([2]; read-out: AHR Antagonism Mouse IC50, mouse Hepa 1c1c7 cells, 200 μM kynurenic acid, 20 hours) |
| --- | --- | --- | --- | --- | --- |
| 3.94e-09 M | 7.74 nM |  |  | COc1ccc(-c2nc3c4cccc(Br)c4nc(N[C@H](C)C(=O)NCCN4CCNCC4)n3n2)cc1 [Example 992, N^2-[7-bromo-2-(4-methoxyphenyl)[1,2,4]triazolo[1,5-c]quinazolin-5-yl]-N-[2-(piperazin-1-yl)ethyl]-D-alaninamide-hydrogen chloride (1/2)] |  |
| 4.64e-10 M | 2.08 nM |  |  | COc1ccc(-c2nc3c4cccc(Br)c4nc(N[C@H](C)C(=O)N4CCN(C)CC4)n3n2)cc1 [Example 788, (2R)-2-{[7-bromo-2-(4-methoxyphenyl)[1,2,4]triazolo[1,5-c]quinazolin-5-yl]amino}-1-(4-methylpiperazin-1-yl)propan-1-one] |  |
|  |  | 5.75e-09 M | 3.58 nM | CNC(=O)[C@@H](C)Nc1nc2ccccc2c2nc(-c3cccc(OC)c3)nn12 [Example 108, N^2-[2-(3-methoxyphenyl)[1,2,4]triazolo[1,5-c]quinazolin-5-yl]-N-methyl-D-alaninamide] |  |
|  |  | 4.89e-06 M | 264 nM | CC[C@H](Nc1nc2ccccc2c2nc(-c3cccc(C#N)c3)nn12)C(N)=O [Example 442, (2S)-2-{[2-(3-cyanophenyl)[1,2,4]triazolo[1,5-c]quinazolin-5-yl]amino}butanamide] |  |
|  |  | 3.11e-09 M | 9.93 nM | N#Cc1cccc2c1nc(N[C@@H]1CCCCNC1=O)n1nc(-c3cnn(C4CC4)c3)nc21 [Example 761, 2-(1-cyclopropyl-1H-pyrazol-4-yl)-5-{[(3R)-2-oxoazepan-3-yl]amino}[1,2,4]triazolo[1,5-c]quinazoline-7-carbonitrile] |  |
|  |  | > 2e-05 M | > 20000 nM | O=C1NCCCC[C@@H]1Nc1nc2ccccc2c2nc(-c3cc(Br)ccc3OC(F)(F)F)nn12 [Example 506, (3S)-3-({2-[5-bromo-2-(trifluoromethoxy)phenyl][1,2,4]triazolo[1,5-c]quinazolin-5-yl}amino)azepan-2-one] |  |
| 3.57e-09 M | 2.47 nM |  |  | CCCNC(=O)[C@@H](CC)Nc1nc2c(Br)cccc2c2nc(-c3ccc(Cl)cc3OC(F)(F)F)nn12 [Example 812, (2R)-2-({7-bromo-2-[4-chloro-2-(trifluoromethoxy)phenyl][1,2,4]triazolo[1,5-c]quinazolin-5-yl}amino)-N-propylbutanamide] |  |
| 2.57e-08 M | 378 nM |  |  | CCOC(=O)[C@@H](C)Nc1nc2c(C(F)(F)F)cccc2c2nc(-c3cnn(C)c3)nn12 [Example 864, ethyl N-[2-(1-methyl-1H-pyrazol-4-yl)-7-(trifluoromethyl)[1,2,4]triazolo[1,5-c]quinazolin-5-yl]-D-alaninate] |  |
| 5.77e-09 M | 8.5 nM |  |  | CC(C)n1cc(-c2nc3c4cccc(Cl)c4nc(N[C@@H]4CNCCNC4=O)n3n2)cn1 [Example 956, (6R)-6-({7-chloro-2-[1-(propan-2-yl)-1H-pyrazol-4-yl][1,2,4]triazolo[1,5-c]quinazolin-5-yl}amino)-1,4-diazepan-5-one] |  |
|  |  | 4.08e-08 M | 171 nM | COc1ccc2nc(N[C@@H]3CCCCNC3=O)n3nc(-c4ccccc4F)nc3c2c1 [Example 240, (3R)-3-{[2-(2-fluorophenyl)-9-methoxy[1,2,4]triazolo[1,5-c]quinazolin-5-yl]amino}azepan-2-one] |  |
|  |  | 4.02e-09 M | 14.8 nM | COc1ccc(-c2nc3c4c(C)cccc4nc(N[C@@H]4CCCCNC4=O)n3n2)cc1 [Example 243, (3R)-3-{[2-(4-methoxyphenyl)-10-methyl[1,2,4]triazolo[1,5-c]quinazolin-5-yl]amino}azepan-2-one] |  |
| 4.21e-08 M | 18.5 nM |  |  | CCNC(=O)[C@H](CC)Nc1nc2c(Br)cccc2c2nc(-c3ccc(Cl)cc3OC(F)F)nn12 [Example 799, (2S)-2-({7-bromo-2-[4-chloro-2-(difluoromethoxy)phenyl][1,2,4]triazolo[1,5-c]quinazolin-5-yl}amino)-N-ethylbutanamide] |  |
|  |  | 6.29e-06 M | 12100 nM | Cn1ccc(-c2nc3c4ccccc4nc(N[C@@H]4CNCCNC4=O)n3n2)n1 [Example 257, (6R)-6-{[2-(1-methyl-1H-pyrazol-3-yl)[1,2,4]triazolo[1,5-c]quinazolin-5-yl]amino}-1,4-diazepan-5-one] |  |
|  |  | 1.77e-07 M | 11.2 nM | O=C1NCCNC[C@H]1Nc1nc2ccccc2c2nc(-c3ccc(OC4CC4)cc3)nn12 [Example 411, (6R)-6-({2-[4-(cyclopropyloxy)phenyl][1,2,4]triazolo[1,5-c]quinazolin-5-yl}amino)-1,4-diazepan-5-one] |  |
| 2.31e-10 M | 0.385 nM |  |  | CCn1cc(-c2nc3c4cccc(Cl)c4nc(N[C@@H]4CCCCNC4=O)n3n2)c(C)n1 [Example 819, (3R)-3-{[7-chloro-2-(1-ethyl-3-methyl-1H-pyrazol-4-yl)[1,2,4]triazolo[1,5-c]quinazolin-5-yl]amino}azepan-2-one] |  |
|  |  | 3.39e-09 M | 0.896 nM | CCCCNC(=O)[C@@H](C)Nc1nc2c(Br)cccc2c2nc(-c3ccc(Cl)cc3OC(F)F)nn12 [Example 684, N^2-{7-bromo-2-[4-chloro-2-(difluoromethoxy)phenyl][1,2,4]triazolo[1,5-c]quinazolin-5-yl}-N-butyl-D-alaninamide] |  |
|  |  | 3.34e-07 M | 184 nM | CCC[C@@H](Nc1nc2ccccc2c2nc(-c3ccncc3F)nn12)C(=O)NC [Example 486, N^2-[2-(3-fluoropyridin-4-yl)[1,2,4]triazolo[1,5-c]quinazolin-5-yl]-N-methyl-D-norvalinamide] |  |
| 2.01e-09 M | 1.33 nM |  |  | COC(=O)N1CCN(C(=O)[C@@H](C)Nc2nc3c(Br)cccc3c3nc(-c4ccc(OC)cc4)nn23)CC1 [Example 894, methyl 4-{N-[7-bromo-2-(4-methoxyphenyl)[1,2,4]triazolo[1,5-c]quinazolin-5-yl]-D-alanyl}piperazine-1-carboxylate] |  |
|  |  | 2.74e-08 M | 28 nM | COc1cscc1-c1nc2c3ccccc3nc(N[C@@H]3CCCCNC3=O)n2n1 [Example 333, (3R)-3-{[2-(4-Methoxythiophen-3-yl)[1,2,4]triazolo[1,5-c]quinazolin-5-yl]amino}azepan-2-one] |  |
|  |  | > 2e-05 M | 1.57 nM | O=C1NCCCC[C@H]1Nc1nc2c(C(F)(F)F)cccc2c2nc(-c3ccc(Cl)cc3OC(F)F)nn12 [Example 673, (3R)-3-({2-[4-chloro-2-(difluoromethoxy)phenyl]-7-(trifluoromethyl)[1,2,4]triazolo[1,5-c]quinazolin-5-yl}amino)azepan-2-one] |  |

| SMILES | IC50 ([1]; firefly luciferase reporter) | IC50 [2, 3] | IC50 [1] | IC50 [2, 4] | IC50 ([2]; read-out: AHR Antagonism Mouse IC50, mouse Hepa 1c1c7 cells, 200 μM kynurenic acid, 20 hours) |
| --- | --- | --- | --- | --- | --- |
| COc1cccc(-c2nc3c4c(C)cccc4nc(NC4CCNC4=O)n3n2)c1 (stereo not drawn) [Example 179, 3-{[2-(3-methoxyphenyl)-10-methyl[1,2,4]triazolo[1,5-c]quinazolin-5-yl]amino}pyrrolidin-2-one] |  |  | 1.01e-07 M |  | 246 nM |
